From publication PMC3523469 (Investigational New Drugs, 2012)
Where two headings read alike, the source gives them in different places.

Format: in vivo, Japanese patients
[1] = across all dose levels, 13 patients

## COc1cc2ncnc(Nc3ccc(F)c(Cl)c3)c2cc1NC(=O)/C=C/CN1CCCCC1 [dacomitinib, Dacomitinib]
30 mg QD (n = 3), G3
  Dry skin, number of patients with treatment-related AE: 0
  ECG QT prolonged, number of patients with treatment-related AE: 0
  Edema, number of patients with treatment-related AE: 0
  Fatigue, number of patients with treatment-related AE: 0
  Hematuria, number of patients with treatment-related AE: 0
  Hypertrichosis, number of patients with treatment-related AE: 0
  Leukopenia, number of patients with treatment-related AE: 0
  Nausea, number of patients with treatment-related AE: 0
  Palmar–plantar erythrodysesthesia, number of patients with treatment-related AE: 0
  Paronychia, number of patients with treatment-related AE: 0
  Proteinuria, number of patients with treatment-related AE: 0
  Rash, number of patients with treatment-related AE: 0
  Skin fissures, number of patients with treatment-related AE: 0
  Stomatitis, number of patients with treatment-related AE: 0
  Weight decreased, number of patients with treatment-related AE: 0
45 mg QD (n = 7), All
  Alanine aminotransferase increased, number of patients with treatment-related AE: 2
  Aspartate aminotransferase increased, number of patients with treatment-related AE: 2
  Blood bilirubin increased, number of patients with treatment-related AE: 2
  Cheilitis, number of patients with treatment-related AE: 2
  Conjunctivitis, number of patients with treatment-related AE: 3
  Decreased appetite, number of patients with treatment-related AE: 2
  Diarrhea, number of patients with treatment-related AE: 7
  Dry skin, number of patients with treatment-related AE: 5
  ECG QT prolonged, number of patients with treatment-related AE: 0
  Edema, number of patients with treatment-related AE: 2
  Fatigue, number of patients with treatment-related AE: 5
  Hematuria, number of patients with treatment-related AE: 2
  Hypertrichosis, number of patients with treatment-related AE: 2
  Leukopenia, number of patients with treatment-related AE: 3
  Nausea, number of patients with treatment-related AE: 2
  Palmar–plantar erythrodysesthesia, number of patients with treatment-related AE: 2
  Paronychia, number of patients with treatment-related AE: 6
  Proteinuria, number of patients with treatment-related AE: 3
  Rash, number of patients with treatment-related AE: 7
  Skin fissures, number of patients with treatment-related AE: 2
  Stomatitis, number of patients with treatment-related AE: 5
  Weight decreased, number of patients with treatment-related AE: 2
45 mg QD (n = 7), G1
  Alanine aminotransferase increased, number of patients with treatment-related AE: 0
  Aspartate aminotransferase increased, number of patients with treatment-related AE: 0
  Blood bilirubin increased, number of patients with treatment-related AE: 0
  Cheilitis, number of patients with treatment-related AE: 2
  Conjunctivitis, number of patients with treatment-related AE: 3
  Decreased appetite, number of patients with treatment-related AE: 0
  Diarrhea, number of patients with treatment-related AE: 4
  Dry skin, number of patients with treatment-related AE: 5
  ECG QT prolonged, number of patients with treatment-related AE: 0
  Edema, number of patients with treatment-related AE: 1
  Fatigue, number of patients with treatment-related AE: 1
  Hematuria, number of patients with treatment-related AE: 2
  Hypertrichosis, number of patients with treatment-related AE: 2
  Leukopenia, number of patients with treatment-related AE: 1
  Nausea, number of patients with treatment-related AE: 1
  Palmar–plantar erythrodysesthesia, number of patients with treatment-related AE: 0
  Paronychia, number of patients with treatment-related AE: 1
  Proteinuria, number of patients with treatment-related AE: 2
  Rash, number of patients with treatment-related AE: 1
  Skin fissures, number of patients with treatment-related AE: 1
  Stomatitis, number of patients with treatment-related AE: 4
  Weight decreased, number of patients with treatment-related AE: 0
45 mg QD (n = 7), G2
  Alanine aminotransferase increased, number of patients with treatment-related AE: 1
  Aspartate aminotransferase increased, number of patients with treatment-related AE: 1
  Blood bilirubin increased, number of patients with treatment-related AE: 1
  Cheilitis, number of patients with treatment-related AE: 0
  Conjunctivitis, number of patients with treatment-related AE: 0
  Decreased appetite, number of patients with treatment-related AE: 1
  Diarrhea, number of patients with treatment-related AE: 3
  Dry skin, number of patients with treatment-related AE: 0
  ECG QT prolonged, number of patients with treatment-related AE: 0
  Edema, number of patients with treatment-related AE: 1
  Fatigue, number of patients with treatment-related AE: 4
  Hematuria, number of patients with treatment-related AE: 0
  Hypertrichosis, number of patients with treatment-related AE: 0
  Leukopenia, number of patients with treatment-related AE: 2
  Nausea, number of patients with treatment-related AE: 1
  Palmar–plantar erythrodysesthesia, number of patients with treatment-related AE: 2
  Paronychia, number of patients with treatment-related AE: 5
  Proteinuria, number of patients with treatment-related AE: 1
  Rash, number of patients with treatment-related AE: 4
  Skin fissures, number of patients with treatment-related AE: 1
  Stomatitis, number of patients with treatment-related AE: 1
  Weight decreased, number of patients with treatment-related AE: 2
45 mg QD (n = 7), G3
  Alanine aminotransferase increased, number of patients with treatment-related AE: 1
  Aspartate aminotransferase increased, number of patients with treatment-related AE: 1
  Blood bilirubin increased, number of patients with treatment-related AE: 1
  Cheilitis, number of patients with treatment-related AE: 0
  Conjunctivitis, number of patients with treatment-related AE: 0
  Decreased appetite, number of patients with treatment-related AE: 1
  Diarrhea, number of patients with treatment-related AE: 0
  Dry skin, number of patients with treatment-related AE: 0
  ECG QT prolonged, number of patients with treatment-related AE: 0
  Edema, number of patients with treatment-related AE: 0
  Fatigue, number of patients with treatment-related AE: 0
  Hematuria, number of patients with treatment-related AE: 0
  Hypertrichosis, number of patients with treatment-related AE: 0
  Leukopenia, number of patients with treatment-related AE: 0
  Nausea, number of patients with treatment-related AE: 0
  Palmar–plantar erythrodysesthesia, number of patients with treatment-related AE: 0
  Paronychia, number of patients with treatment-related AE: 0
  Proteinuria, number of patients with treatment-related AE: 0
  Rash, number of patients with treatment-related AE: 2
  Skin fissures, number of patients with treatment-related AE: 0
  Stomatitis, number of patients with treatment-related AE: 0
  Weight decreased, number of patients with treatment-related AE: 0
45 mg dosing cohort
  device-related infection, treatment-related grade 3 AE, number: 1
  treatment-related grade 3 AEs, number: seven
15, 30, 45 mg QD, single dose to day 21 of cycle 1, 12 patients evaluated
  Dose-limiting toxicity (DLT): no DLTs observed at any dose
Japanese patients with advanced solid tumors
  clinically recommended phase II dose (RP2D): 45 mg QD
Total (N = 13)
  Alanine aminotransferase increased, % of patients with treatment-related AE: 15%
  Alanine aminotransferase increased, number of patients with treatment-related AE: 2
  Aspartate aminotransferase increased, % of patients with treatment-related AE: 15%
  Aspartate aminotransferase increased, number of patients with treatment-related AE: 2
  Blood bilirubin increased, % of patients with treatment-related AE: 15%
  Blood bilirubin increased, number of patients with treatment-related AE: 2
  Cheilitis, % of patients with treatment-related AE: 38%
  Cheilitis, number of patients with treatment-related AE: 5
  Conjunctivitis, % of patients with treatment-related AE: 31%
  Conjunctivitis, number of patients with treatment-related AE: 4
  Decreased appetite, % of patients with treatment-related AE: 23%
  Decreased appetite, number of patients with treatment-related AE: 3
  Diarrhea, % of patients with treatment-related AE: 92%
  Diarrhea, number of patients with treatment-related AE: 12
  Dry skin, % of patients with treatment-related AE: 61.5%
  Dry skin, number of patients with treatment-related AE: 8
  ECG QT prolonged, % of patients with treatment-related AE: 15%
  ECG QT prolonged, number of patients with treatment-related AE: 2
  Edema, % of patients with treatment-related AE: 15%
  Edema, number of patients with treatment-related AE: 2
  Fatigue, % of patients with treatment-related AE: 46%
  Fatigue, number of patients with treatment-related AE: 6
  Hematuria, % of patients with treatment-related AE: 15%
  Hematuria, number of patients with treatment-related AE: 2
  Hypertrichosis, % of patients with treatment-related AE: 15%
  Hypertrichosis, number of patients with treatment-related AE: 2
  Leukopenia, % of patients with treatment-related AE: 23%
  Leukopenia, number of patients with treatment-related AE: 3
  Nausea, % of patients with treatment-related AE: 23%
  Nausea, number of patients with treatment-related AE: 3
  Palmar–plantar erythrodysesthesia, % of patients with treatment-related AE: 38%
  Palmar–plantar erythrodysesthesia, number of patients with treatment-related AE: 5
  Paronychia, % of patients with treatment-related AE: 69%
  Paronychia, number of patients with treatment-related AE: 9
  Proteinuria, % of patients with treatment-related AE: 23%
  Proteinuria, number of patients with treatment-related AE: 3
  Rash, % of patients with treatment-related AE: 100%
  Rash, number of patients with treatment-related AE: 13
  Skin fissures, % of patients with treatment-related AE: 15%
  Skin fissures, number of patients with treatment-related AE: 2
  Stomatitis, % of patients with treatment-related AE: 61.5%
  Stomatitis, number of patients with treatment-related AE: 8
  Weight decreased, % of patients with treatment-related AE: 23%
  Weight decreased, number of patients with treatment-related AE: 3
[1]
  diarrhea, all-causality AE, number of patients: 12
  dry skin, all-causality AE, number of patients: 8
  paronychia, all-causality AE, number of patients: 9
  rash, all-causality AE, number of patients: 13
  stomatitis, all-causality AE, number of patients: 8
All cohorts, all cycles
  grade 4 or 5 treatment-related adverse events: ^aThere were no grade 4 or 5 treatment-related adverse events
All dose levels
  grade 4 AEs: No grade 4 AEs were reported
All in the 45 mg dosing cohort
  patients requiring temporary discontinuations due to TRAEs, number: five
One patient, 15 mg cohort, day 1 cycle 1, grade 1
  prolonged QTcF interval, change from baseline: 26 ms
overall
  treatment-related grade 3 AEs, number: eight
single-dose administration phase
  AEs observed in ≥1 patient during the single-dose administration phase: rash and diarrhea
